Experiment: xn = mol fraction of the nth substance listed
Settings: Liquid, Other PVT measurement

C=CC [propene] + CCCCCC
Settings | mass density [kg/m3]
325.5 K, 6800 kPa, x1 = 0.8985 | 488.5
325.5 K, 10700 kPa, x1 = 0.8985 | 500.7
325.5 K, 13800 kPa, x1 = 0.8985 | 508.3
325.5 K, 16100 kPa, x1 = 0.8985 | 513.5
325.5 K, 20900 kPa, x1 = 0.8985 | 523.6
325.5 K, 27600 kPa, x1 = 0.8985 | 535.1
325.5 K, 34300 kPa, x1 = 0.8985 | 544.8
325.5 K, 41300 kPa, x1 = 0.8985 | 554.1
325.5 K, 48200 kPa, x1 = 0.8985 | 561.7
325.5 K, 51600 kPa, x1 = 0.8985 | 566.7
325.5 K, 55000 kPa, x1 = 0.8985 | 569.5
325.5 K, 58400 kPa, x1 = 0.8985 | 574.2
325.5 K, 61800 kPa, x1 = 0.8985 | 576.8
325.5 K, 64200 kPa, x1 = 0.8985 | 580.1
325.5 K, 67100 kPa, x1 = 0.8985 | 582.4
370.2 K, 5200 kPa, x1 = 0.9003 | 385.2
370.2 K, 5900 kPa, x1 = 0.9003 | 392.1
370.2 K, 7300 kPa, x1 = 0.9003 | 406
370.2 K, 10700 kPa, x1 = 0.9003 | 429.7
370.2 K, 14200 kPa, x1 = 0.9003 | 447.3
370.2 K, 17300 kPa, x1 = 0.9003 | 459.2
370.2 K, 20800 kPa, x1 = 0.9003 | 469.1
370.2 K, 24100 kPa, x1 = 0.9003 | 478.3
370.2 K, 31300 kPa, x1 = 0.9003 | 495.2
370.2 K, 38000 kPa, x1 = 0.9003 | 508.5
370.2 K, 44600 kPa, x1 = 0.9003 | 519.7
370.2 K, 46900 kPa, x1 = 0.9003 | 523.6
370.2 K, 48000 kPa, x1 = 0.9003 | 523.6
370.2 K, 50600 kPa, x1 = 0.9003 | 529.1
370.2 K, 51400 kPa, x1 = 0.9003 | 529.1
370.2 K, 57800 kPa, x1 = 0.9003 | 538.5
370.2 K, 61800 kPa, x1 = 0.9003 | 544.3
370.2 K, 67100 kPa, x1 = 0.9003 | 550.3
374.1 K, 2800 kPa, x1 = 0.606 | 465.7
374.1 K, 2900 kPa, x1 = 0.606 | 467
374.1 K, 3800 kPa, x1 = 0.606 | 471.2
374.1 K, 5500 kPa, x1 = 0.606 | 479
374.1 K, 7300 kPa, x1 = 0.606 | 486.2
374.1 K, 10600 kPa, x1 = 0.606 | 497.9
374.1 K, 17400 kPa, x1 = 0.606 | 515.3
374.1 K, 24000 kPa, x1 = 0.606 | 528.5
374.1 K, 31000 kPa, x1 = 0.606 | 540.7
374.1 K, 37900 kPa, x1 = 0.606 | 551.3
374.1 K, 38000 kPa, x1 = 0.606 | 551.7
374.1 K, 44700 kPa, x1 = 0.606 | 560.9
374.1 K, 51300 kPa, x1 = 0.606 | 569.2
374.1 K, 58100 kPa, x1 = 0.606 | 577.4
374.1 K, 63300 kPa, x1 = 0.606 | 583.4
374.1 K, 66900 kPa, x1 = 0.606 | 587.4
423.6 K, 16600 kPa, x1 = 0.9003 | 385.2
423.6 K, 17400 kPa, x1 = 0.9003 | 389.1
423.6 K, 20800 kPa, x1 = 0.9003 | 408.2
423.6 K, 24300 kPa, x1 = 0.9003 | 424
423.6 K, 31200 kPa, x1 = 0.9003 | 449.1
423.6 K, 37900 kPa, x1 = 0.9003 | 462.3
423.6 K, 44800 kPa, x1 = 0.9003 | 479.8
423.6 K, 51600 kPa, x1 = 0.9003 | 493
423.6 K, 58300 kPa, x1 = 0.9003 | 504.1
423.6 K, 59400 kPa, x1 = 0.9003 | 504.8
423.6 K, 63700 kPa, x1 = 0.9003 | 512.3
423.6 K, 67100 kPa, x1 = 0.9003 | 516.8
424 K, 10100 kPa, x1 = 0.606 | 427.5
424 K, 17500 kPa, x1 = 0.606 | 462.7
424 K, 24300 kPa, x1 = 0.606 | 484.2
424 K, 30800 kPa, x1 = 0.606 | 500.6
424 K, 37900 kPa, x1 = 0.606 | 514.3
424 K, 44700 kPa, x1 = 0.606 | 523.9
424 K, 51400 kPa, x1 = 0.606 | 534.9
424 K, 58300 kPa, x1 = 0.606 | 546
424 K, 63000 kPa, x1 = 0.606 | 551
424 K, 66900 kPa, x1 = 0.606 | 556
424.7 K, 4800 kPa, x1 = 0.4466 | 433.6
424.7 K, 7200 kPa, x1 = 0.4466 | 448.4
424.7 K, 10700 kPa, x1 = 0.4466 | 467.6
424.7 K, 17400 kPa, x1 = 0.4466 | 492.5
424.7 K, 21000 kPa, x1 = 0.4466 | 502.4
424.7 K, 24300 kPa, x1 = 0.4466 | 511.5
424.7 K, 31000 kPa, x1 = 0.4466 | 525
424.7 K, 37800 kPa, x1 = 0.4466 | 537.6
424.7 K, 44700 kPa, x1 = 0.4466 | 548.4
424.7 K, 51500 kPa, x1 = 0.4466 | 558.4
424.7 K, 58300 kPa, x1 = 0.4466 | 567.4
424.7 K, 63900 kPa, x1 = 0.4466 | 573.9
424.7 K, 67500 kPa, x1 = 0.4466 | 578.1
425 K, 1800 kPa, x1 = 0.1414 | 494.2
425 K, 3700 kPa, x1 = 0.1414 | 504.2
425 K, 5100 kPa, x1 = 0.1414 | 510.4
425 K, 7000 kPa, x1 = 0.1414 | 517.7
425 K, 10400 kPa, x1 = 0.1414 | 528.7
425 K, 17300 kPa, x1 = 0.1414 | 546.6
425 K, 17500 kPa, x1 = 0.1414 | 547.3
425 K, 20600 kPa, x1 = 0.1414 | 553.9
425 K, 24100 kPa, x1 = 0.1414 | 561.4
425 K, 27600 kPa, x1 = 0.1414 | 567.6
425 K, 30900 kPa, x1 = 0.1414 | 573.2
425 K, 34300 kPa, x1 = 0.1414 | 578.9
425 K, 37800 kPa, x1 = 0.1414 | 584.7
425 K, 41100 kPa, x1 = 0.1414 | 589.1
425 K, 44600 kPa, x1 = 0.1414 | 594.3
425 K, 51900 kPa, x1 = 0.1414 | 603.8
425 K, 54400 kPa, x1 = 0.1414 | 607.1
425 K, 58600 kPa, x1 = 0.1414 | 612.3
425 K, 61800 kPa, x1 = 0.1414 | 615.7
425 K, 63600 kPa, x1 = 0.1414 | 617.9
425 K, 66700 kPa, x1 = 0.1414 | 621
500.9 K, 12400 kPa, x1 = 0.1414 | 449.6
500.9 K, 13900 kPa, x1 = 0.1414 | 457.6
500.9 K, 20800 kPa, x1 = 0.1414 | 486.8
500.9 K, 24600 kPa, x1 = 0.1414 | 500.5
500.9 K, 27500 kPa, x1 = 0.1414 | 508.9
500.9 K, 31000 kPa, x1 = 0.1414 | 517.7
500.9 K, 37300 kPa, x1 = 0.1414 | 531.3
500.9 K, 37900 kPa, x1 = 0.1414 | 531.3
500.9 K, 41400 kPa, x1 = 0.1414 | 537.5
500.9 K, 44700 kPa, x1 = 0.1414 | 543.2
500.9 K, 44800 kPa, x1 = 0.1414 | 543.5
500.9 K, 47100 kPa, x1 = 0.1414 | 549
500.9 K, 48100 kPa, x1 = 0.1414 | 549
500.9 K, 51500 kPa, x1 = 0.1414 | 554.6
500.9 K, 54900 kPa, x1 = 0.1414 | 559.9
500.9 K, 58400 kPa, x1 = 0.1414 | 565.4
500.9 K, 61800 kPa, x1 = 0.1414 | 569.8
500.9 K, 64600 kPa, x1 = 0.1414 | 574
500.9 K, 67400 kPa, x1 = 0.1414 | 577.4
501 K, 7900 kPa, x1 = 0.4466 | 293.3
501 K, 9200 kPa, x1 = 0.606 | 230.6
501 K, 9700 kPa, x1 = 0.4466 | 331
501 K, 10100 kPa, x1 = 0.4466 | 330.6
501 K, 10700 kPa, x1 = 0.606 | 272.7
501 K, 12400 kPa, x1 = 0.606 | 306.1
501 K, 12600 kPa, x1 = 0.4466 | 363.8
501 K, 17200 kPa, x1 = 0.4466 | 401.7
501 K, 17300 kPa, x1 = 0.606 | 362
501 K, 20700 kPa, x1 = 0.606 | 386.4
501 K, 21900 kPa, x1 = 0.4466 | 428.7
501 K, 22000 kPa, x1 = 0.4466 | 433.3
501 K, 24000 kPa, x1 = 0.4466 | 436.5
501 K, 24400 kPa, x1 = 0.4466 | 440.8
501 K, 25200 kPa, x1 = 0.606 | 411.3
501 K, 29000 kPa, x1 = 0.606 | 429
501 K, 31000 kPa, x1 = 0.606 | 435.7
501 K, 31200 kPa, x1 = 0.4466 | 463.6
501 K, 34600 kPa, x1 = 0.4466 | 473.3
501 K, 37900 kPa, x1 = 0.4466 | 482.2
501 K, 37900 kPa, x1 = 0.606 | 455.7
501 K, 44800 kPa, x1 = 0.606 | 473.6
501 K, 45000 kPa, x1 = 0.4466 | 497.7
501 K, 51400 kPa, x1 = 0.606 | 485.9
501 K, 51600 kPa, x1 = 0.4466 | 509.9
501 K, 57900 kPa, x1 = 0.4466 | 519.9
501 K, 58400 kPa, x1 = 0.606 | 500
501 K, 63000 kPa, x1 = 0.606 | 506.6
501 K, 63200 kPa, x1 = 0.4466 | 527.6
501 K, 67000 kPa, x1 = 0.606 | 512.8
501 K, 67200 kPa, x1 = 0.4466 | 533.2
584.6 K, 29000 kPa, x1 = 0.1414 | 449.8
584.6 K, 31100 kPa, x1 = 0.1414 | 456.9
584.6 K, 34700 kPa, x1 = 0.1414 | 468.2
584.6 K, 37900 kPa, x1 = 0.1414 | 478
584.6 K, 41400 kPa, x1 = 0.1414 | 487.3
584.6 K, 44800 kPa, x1 = 0.1414 | 495.6
584.6 K, 45100 kPa, x1 = 0.1414 | 496.5
584.6 K, 48100 kPa, x1 = 0.1414 | 503.4
584.6 K, 51700 kPa, x1 = 0.1414 | 510.7
584.6 K, 55100 kPa, x1 = 0.1414 | 517.4
584.6 K, 58400 kPa, x1 = 0.1414 | 523.9
584.6 K, 61800 kPa, x1 = 0.1414 | 529
584.6 K, 64200 kPa, x1 = 0.1414 | 532.9
584.6 K, 67400 kPa, x1 = 0.1414 | 537.5

Reference: the NIST ThermoML archive (doi:10.1021/acs.jced.6b00181)
